Laboratory results reported in patent publication US20240285552A1 (priority 2020, published 2024).
Counter-ions that a name gives are not always drawn. Like-named read-outs stand apart in the source and are kept apart here.

Tests used:
[1] = test system: B.1.617.2 Delta Variant of SARS-CoV-2; test: microbe, parasite or virus in culture; format: cell-based; settings: for IC50: read-out: IC 50 against B.1.617.2 Delta Variant Infection-Induced CPE
[2] = test system: SARS-CoV-2 spike (B.1.617.2 Delta Variant) pseudotyped lentivirus; test: microbe, parasite or virus in culture; format: cell-based; settings: for inhibition at 10 µM: HEK293, 10 μM
[3] = Severe acute respiratory syndrome coronavirus 2, Vero C1008, Vero E6
[4] = Lentivirus, read-out: Percent (%) Inhibition of Pseudo virus Entry in HEK293 Kidney Cells, B.1.617.2 Delta Variant

Row | SMILES | Conc. at Max. % Inhibition [1] [µM] | Max. Inhibition [1] [%] | IC50 [1, 3] [µM] | Percent (%) Inhibition of Pseudo virus Entry in HEK293 Kidney Cells, B.1.617.2 Delta Variant ([2]; 100 μM) | inhibition at 10 µM [2, 4] [%] | IC50 ([1]; Vero E6) [µM] | Percent (%) Inhibition of Pseudo virus Entry in HEK293 Kidney Cells, B.1.617.2 Delta Variant ([2]; 50 μM, hydrochloride) [%] | Percent (%) Inhibition of Pseudo virus Entry in HEK293 Kidney Cells, B.1.617.2 Delta Variant ([2]; 100 μM, hydrochloride) [%] | inhibition at 25 µM ([2]; Lentivirus, HEK293, 25 μM, read-out: Percent (%) Inhibition of Pseudo virus Entry in HEK293 Kidney Cells, B.1.617.2 Delta Variant) [%] | inhibition at 50 µM ([2]; Lentivirus, HEK293, 50 μM, read-out: Percent (%) Inhibition of Pseudo virus Entry in HEK293 Kidney Cells, B.1.617.2 Delta Variant) [%] | inhibition at 100 µM ([2]; Lentivirus, HEK293, 100 μM, read-out: Percent (%) Inhibition of Pseudo virus Entry in HEK293 Kidney Cells, B.1.617.2 Delta Variant) [%] | IC50 ([1]; Vero E6, hydrochloride) [µM]
1 | CCC(CC)COC(=O)[C@H](C)N[P@](=O)(OC[C@H]1O[C@@](C#N)(c2ccc3c(N)ncnn23)[C@H](O)[C@@H]1O)Oc1ccccc1 [Remdesivir] | 15 | 104.26 | 8.24 | – | – | – | – | – | – | – | – | –
2 | CN(Cc1cc(Br)cc(Br)c1N)C1CCCCC1 [BHH, Bromhexine hydrochloride] | 18.75 | 74.57 | 17.7 | blocked viral entry completely | ~10 | – | – | – | – | – | – | –
3 | CCN(CC)CCCC(C)Nc1ccnc2cc(Cl)ccc12 (stereo not drawn) [Chloroquine] | 15 | – | 8.3 | – | – | – | – | – | – | – | – | –
4 | CCOC(=O)[C@H]1O[C@@H]1C(=O)N[C@@H](CC(C)C)C(=O)NCCC(C)C [Aloxistatin] | 15 | 85.17 | 9.84 | – | – | 9.82 | – | – | – | – | – | –
5 | Nc1c(Br)cc(Br)cc1CN[C@H]1CC[C@H](O)CC1 [AMB, 4-[(2-amino-3,5-dibromophenyl)methylamino]cyclohexan-1-ol; hydrochloride] | 150 | 88.38 | ~98 | – | 6 | – | 48 | 95 | 19 | 50 | 100 | 98.2
6 | CC(C)(C)[C@H](NC(=O)C(F)(F)F)C(=O)N1C[C@H]2[C@@H]([C@H]1C(=O)N[C@H](C#N)C[C@@H]1CCNC1=O)C2(C)C [PF-07321332] | 10 | 96.28 | – | – | – | 1.98 | – | – | – | – | – | –
